Where “and” joins values, the source holds several entries; their conditions need not be identical. Equal values may be shown once.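 Each compound was tested at five concentrations against cells in 96-well plates for 48 hours. At the GI50, growth is halved.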 Calls of active or inactive are those of the source. Cut-off read from the data, not from the text of the source: active = GI50 up to about 1.1 µM and inactive = higher.
How the values were obtained:
Assay in all cases: inhibition of tumour cell growth, NCI panel, 48 h
SK-OV-3 = tested on: SK-OV-3
HOP-92 = tested on: HOP-92
HCC 2998 = tested on: HCC 2998
SF-295 = tested on: SF-295
KM12 = tested on: KM12
SNB-19 = tested on: SNB-19
Malme-3M = tested on: Malme-3M
SK-MEL-2 = tested on: SK-MEL-2
HL-60 = tested on: HL-60
OVCAR-8 = tested on: OVCAR-8
PC-3 = tested on: PC-3
A498 = tested on: A498
U-251 = tested on: U-251
HCT-15 = tested on: HCT-15
SK-MEL-5 = tested on: SK-MEL-5
NCI-H522 = tested on: NCI-H522
786-0 = tested on: 786-0
HOP-62 = tested on: HOP-62
SW-620 = tested on: SW-620
UACC-62 = tested on: UACC-62
RPMI-8226 = tested on: RPMI-8226
HCT-116 = tested on: HCT-116
T47D = tested on: T47D
IGROV-1 = tested on: IGROV-1
HT-29 = tested on: HT-29
MOLT-4 = tested on: MOLT-4
NCI-H226 = tested on: NCI-H226
UO-31 = tested on: UO-31
MDA-MB-435 = tested on: MDA-MB-435
TK-10 = tested on: TK-10
COLO 205 = tested on: COLO 205
CCRF-CEM = tested on: CCRF-CEM
RXF 393 = tested on: RXF 393
LOX IMVI = tested on: LOX IMVI
SF-539 = tested on: SF-539
MCF7 = tested on: MCF7
ACHN = tested on: ACHN
NCI/ADR-RES = tested on: NCI/ADR-RES
UACC-257 = tested on: UACC-257
DU-145 = tested on: DU-145
EKVX = tested on: EKVX
A549 = tested on: A549
MDA-N = tested on: MDA-N
K562 = tested on: K562
NCI-H23 = tested on: NCI-H23
SNB-75 = tested on: SNB-75
SN12C = tested on: SN12C
OVCAR-4 = tested on: OVCAR-4
M14 = tested on: M14
CAKI-1 = tested on: CAKI-1
OVCAR-3 = tested on: OVCAR-3
SK-MEL-28 = tested on: SK-MEL-28
MDA-MB-231 = tested on: MDA-MB-231

O=C1C=C2C=CC3CC2(O1)C1CCCCN31 (centres undefined)
GI50 (SK-OV-3): 20.5 µM (inactive) and 33.7 µM (inactive) and 30.6 µM (inactive) | GI50 (HOP-92): 12.7 µM (inactive) and 18.3 µM (inactive) and 22.8 µM (inactive) | GI50 (HCC 2998): 16.8 µM (inactive) and 20.3 µM (inactive) and 27.3 µM (inactive) | GI50 (SF-295): 23.3 µM (inactive) and 35.3 µM (inactive) and 45.2 µM (inactive) | GI50 (KM12): 19.2 µM (inactive) and 14.8 µM (inactive) and 12.5 µM (inactive) | GI50 (SNB-19): 28.3 µM (inactive) and 32.4 µM (inactive) and 18.7 µM (inactive) | GI50 (Malme-3M): 14.9 µM (inactive) | GI50 (SK-MEL-2): 28.1 µM (inactive) and 16.8 µM (inactive) and 27.9 µM (inactive) | GI50 (HL-60): 17.2 µM (inactive) | GI50 (OVCAR-8): 17.3 µM (inactive) and 28.3 µM (inactive) and 19.1 µM (inactive) | GI50 (PC-3): 21.5 µM (inactive) and 40.4 µM (inactive) and 25.1 µM (inactive)

O=C(/C(=N/Nc1cn[nH]c(=O)c1Cl)c1ccccc1)c1ccccc1
GI50 (SK-OV-3): 39.5 µM (inactive) | GI50 (A498): 14.7 µM (inactive) | GI50 (U-251): 26.9 µM (inactive) | GI50 (HOP-92): 24.8 µM (inactive) | GI50 (HCT-15): 12.6 µM | GI50 (SK-MEL-5): 28.2 µM (inactive) | GI50 (NCI-H522): 17.1 µM (inactive) | GI50 (786-0): 16 µM (inactive) | GI50 (HOP-62): 44.8 µM (inactive) | GI50 (HCC 2998): 26.9 µM (inactive) | GI50 (SW-620): 31.3 µM (inactive) | GI50 (UACC-62): 16 µM (inactive) | GI50 (RPMI-8226): 24.6 µM (inactive) | GI50 (HCT-116): 23.1 µM (inactive) | GI50 (T47D): 28.4 µM (inactive) | GI50 (IGROV-1): 18.9 µM (inactive) | GI50 (SF-295): 27.6 µM (inactive) | GI50 (HT-29): 20 µM (inactive) | GI50 (MOLT-4): 23.2 µM (inactive) | GI50 (NCI-H226): 25.3 µM (inactive) | GI50 (UO-31): 22.6 µM (inactive) | GI50 (MDA-MB-435): 5.11 µM (inactive) | GI50 (TK-10): 24.9 µM (inactive) | GI50 (COLO 205): 20.3 µM (inactive) | GI50 (CCRF-CEM): 32.4 µM (inactive) | GI50 (RXF 393): 0.326 µM (active) | GI50 (LOX IMVI): 18.8 µM (inactive) | GI50 (KM12): 12.8 µM (inactive) | GI50 (SF-539): 22.6 µM (inactive) | GI50 (MCF7): 45.8 µM (inactive) | GI50 (ACHN): 57.9 µM (inactive) | GI50 (NCI/ADR-RES): 17.5 µM (inactive) | GI50 (UACC-257): 29.2 µM (inactive) | GI50 (DU-145): 20.5 µM (inactive) | GI50 (EKVX): 24 µM (inactive) | GI50 (A549): 18.3 µM (inactive) | GI50 (MDA-N): 4.99 µM (inactive) | GI50 (SNB-19): 91.6 µM (inactive) | GI50 (K562): 24.5 µM (inactive) | GI50 (NCI-H23): 22.4 µM (inactive) | GI50 (SNB-75): 8.79 µM (inactive) | GI50 (SN12C): 27.4 µM (inactive) | GI50 (Malme-3M): 52.7 µM (inactive) | GI50 (OVCAR-4): 41.7 µM (inactive) | GI50 (SK-MEL-2): 46 µM (inactive) | GI50 (HL-60): 16.8 µM (inactive) | GI50 (OVCAR-8): 36.1 µM (inactive) | GI50 (PC-3): 27.5 µM (inactive) | GI50 (M14): 46.8 µM (inactive) | GI50 (CAKI-1): 19.7 µM (inactive) | GI50 (OVCAR-3): 18 µM (inactive) | GI50 (SK-MEL-28): 45.1 µM (inactive) | GI50 (MDA-MB-231): 24.7 µM (inactive)

— ChEMBL document CHEMBL1201862, “PubChem BioAssay data set” (2004)
